Test: Phase 1 SAD/MAD pharmacokinetics
Format: in vivo
Text: The phase 1 study was placebo controlled and double blinded and included 52 subjects in SAD studies and 20 subjects in MAD studies.

In the case of NCCN1CCOCC1 [aminoethyl morpholine metabolite, aminoethyl morpholine], the food effect (elderly adults, fed versus fasted) is reported as “apparent food effect”, the “pharmacokinetics after single oral doses” value (exposure proportional to dose over 100-900 mg of free base) is reported as “linear pharmacokinetics” and the “time to reach steady state upon multiple dosing” value (in vivo) is reported as “approximately 5 days post dose”.
